Laboratory results taken from patent publication EP0973746B1, “SUBSTITUTED 3-CYANO QUINOLINES” (Wyeth Holdings Corporation, priority 1997, dated 1998).
Values after ≈ are worked out from the molar mass of the structure shown. Values joined by “and” are separate entries in the source; they are usually repeats but may differ in a detail not shown here. Equal values may be shown once. Read-outs that look alike come from different tables or passages of the source.

How the values were obtained:
[1] = target: T1, Kinase insert Domain containing Receptor (KDR: the catalytic domain of the VEGF receptor) (Homo sapiens, UniProt P35968); test: Inhibition of Kinase insert Domain containing Receptor (KDR); format: biochemical;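 note: KDR phosphorylating a Glu:Tyr 4:1 copolymer with P32- or P33-labelled ATP, Mg++ and vanadate, read as acid-insoluble radiolabel, compared with compound-free reaction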
T1 construct: KDR: the catalytic domain of the VEGF receptor
T1 sequence (P35968 834-1162 limits assumed): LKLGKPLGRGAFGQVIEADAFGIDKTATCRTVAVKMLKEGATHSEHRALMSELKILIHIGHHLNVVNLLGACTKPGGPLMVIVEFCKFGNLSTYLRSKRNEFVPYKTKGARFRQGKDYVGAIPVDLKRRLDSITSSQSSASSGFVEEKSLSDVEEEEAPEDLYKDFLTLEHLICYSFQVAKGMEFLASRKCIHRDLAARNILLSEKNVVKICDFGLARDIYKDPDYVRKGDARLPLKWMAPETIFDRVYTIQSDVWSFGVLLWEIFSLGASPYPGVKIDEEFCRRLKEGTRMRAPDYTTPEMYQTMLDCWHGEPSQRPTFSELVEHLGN
Experimental: In this standard pharmacological test procedure, KDR protein is mixed, in the presence or absence of a inhibitor compound, with a substrate peptide to be phosphorylated (a copolymer of glutamic acid and tyrosine, E:Y :: 4:1) and other cofactors such as Mg^++ and sodium vanadate (a protein tyrosine phosphatase inhibitor) in an appropriate buffer to maintain pH (7.2). ATP and a radioactive tracer (either P^32-or P^33- labeled ATP) is then add to initiate phosphorylation. After incubation, the radioactive phosphate associated with the acid-insoluble fraction of the assay mixture is then quantified as reflection of substrate phosphorylation.

[2] = target: recombinant human MEK 1 (MAPKK) and recombinant human ERK2 (MAPK); test: Mitogen Activated Protein Kinase (MAPK) assay, two component coupled MEK 1 / ERK2; format: biochemical; details: separate entries for the same compound = evaluated more than one time;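 note: MEK 1-activated ERK2 phosphorylates MBP or Myc peptide with 33P-ATP, filter capture and scintillation counting, inhibitor preincubated with ERK2 30 min at 0 °C, inhibition relative to uninhibited control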
SW620 = test: Inhibition of cancer cell growth as measured by cell number, SW620; format: cell-based, human; details: Table 8; for IC50: Homo sapiens, SW-620, 48 h;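 for all read-outs here: SW620 was included as a cell line with little or no EGFR or HER2/neu expression, in contrast to receptor-overexpressing lines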
Text: (§1) The cell lines were chosen since they overexpressed epidermal growth factor receptor (EGFR) (i.e. A431) or HER2/neu (SKBR3), or had little to no expression of the these receptors (SW620, LOX, MCF7).

SKBR3 = test: Inhibition of cancer cell growth as measured by cell number, SKBR3; format: cell-based, human; details: Table 8; for IC50: Homo sapiens;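 for all read-outs here: SK-BR-3 cells were selected as a line overexpressing HER2/neu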
Text: as §1

A431 = test: Inhibition of cancer cell growth as measured by cell number, A431; format: cell-based, human; details: Homo sapiens, A-431, 48 h, cell number, Sulforhodamine B, 48 hours exposure; Table 8; read-out: IC50 A431;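 note: human A431 line, picked because it overexpresses epidermal growth factor receptor (EGFR)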
Text: as §1

MCF7 = test: Inhibition of cancer cell growth as measured by cell number, MCF7; format: cell-based, human; details: Homo sapiens, MCF7, 48 h, cell number, Sulforhodamine B, 48 hours exposure; Table 8; read-out: IC50 MCF7;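 note: MCF7 was included as a line with little or no EGFR or HER2/neu expression, in contrast to the receptor-overexpressing lines of the panel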
Text: as §1

LOX = test: Inhibition of cancer cell growth as measured by cell number, LOX; format: cell-based, human; details: Homo sapiens, LOX, 48 h, cell number, Sulforhodamine B, 48 hours exposure; Table 8; read-out: IC50 LOX;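 note: LOX cells served as a line with low or absent EGFR and HER2/neu expression, in contrast to receptor-overexpressing lines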
Text: as §1

[3] = target: T2, His-tagged cytoplasmic domain of EGFR (Homo sapiens, UniProt P00533); test: Inhibition of Epidermal Growth Factor Receptor Kinase (EGF-R) using recombinant enzyme; format: biochemical; details: recombinant enzyme; RR-SRC peptide; average of the number of tests; read-out: IC50;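 note: radiometric kinase assay measuring radiolabeled phosphate transfer from ATP onto the peptide tyrosine by scintillation counting, control is reaction without compound, background subtracted, IC50 from dose-response curve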
T2 construct: containing the EGFR cDNA encoding amino acids 645 - 1186 preceded by Met-Ala-(His)6; made in house; host or cells: Sf9 cells, recombinant baculovirus vHcEGFR52
T2 sequence (P00533 669-1210): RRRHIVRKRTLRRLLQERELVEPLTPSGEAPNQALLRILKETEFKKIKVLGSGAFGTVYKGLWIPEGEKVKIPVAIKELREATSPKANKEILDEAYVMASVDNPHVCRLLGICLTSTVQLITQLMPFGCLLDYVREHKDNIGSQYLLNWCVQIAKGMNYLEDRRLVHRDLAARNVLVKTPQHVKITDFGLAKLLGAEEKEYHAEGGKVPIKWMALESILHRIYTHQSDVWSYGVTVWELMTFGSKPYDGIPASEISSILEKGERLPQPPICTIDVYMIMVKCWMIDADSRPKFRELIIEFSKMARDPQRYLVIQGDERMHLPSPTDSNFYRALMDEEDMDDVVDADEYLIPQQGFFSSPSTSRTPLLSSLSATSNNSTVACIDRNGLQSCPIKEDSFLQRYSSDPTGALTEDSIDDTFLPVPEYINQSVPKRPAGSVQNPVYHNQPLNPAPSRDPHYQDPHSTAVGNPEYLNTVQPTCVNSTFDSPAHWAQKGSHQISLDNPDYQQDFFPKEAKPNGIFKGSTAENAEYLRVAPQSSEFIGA
Experimental: The enzyme used in this assay is the His-tagged cytoplasmic domain of EGFR.
Compounds to be evaluated were made into 10 mg/mL stock solutions in 100% dimethylsulfoxide (DMSO). Prior to experiment, stock solutions were diluted to 500 µM with 100% DMSO and then serially diluted to the desired concentration with HEPES buffer (30 mM HEPES pH 7.4).
For the enzyme reaction, 10 µL of each inhibitor (at various concentrations) were added to each well of a 96-well plate. […] This was allowed to sit for 10 min on ice and was followed by the addition of 5 µl peptide (80 µM final conc.), 10µl of 4X Buffer (Table A), 0.25 µL ^33P-ATP and 12 µL H2O. The reaction was allowed to run for 90 min at room temperature and was followed by spotting the entire volume on to precut P81 filter papers. The filter discs were washed 2X with 0.5% phosphoric acid and radioactivity was measured using a liquid scintillation counter.
The % inhibition of the test compound was determined for at least three different concentrations and the IC50 value was evaluated from the dose response curve. […] CPM(control) is in units of counts per minute and was a number expressing the amount of radiolabeled ATP (g-33P) incorporated into the RR-SRC peptide substrate by the enzyme after 90 minutes at room temperature in the absence of test compound as measured by liquid scintillation counting. The CPM values were corrected for the background counts produced by ATP in the absence of the enzymatic reaction. The IC50 values reported in TABLE 2 are averages of the number of tests conducted.

[4] = pH 7.2, radioactive format, read-out: KDR IC50 (converted)
[5] = cell number, Sulforhodamine B, 48 hours exposure
[6] = cell number, Sulforhodamine B, 48 hours exposure, read-out: IC50 SW620
[7] = SK-BR-3, cell number, Sulforhodamine B, 48 hours exposure, read-out: IC50 SKBR3

Molecule | IC50 [2] | IC50 [1, 4] [µM] | also measured
4-(4-Chloro-2-fluoro-phenylamino)-5,8-dimethoxy-quinoline-3-carbonitrile [Example 238] | > 100 µM | – | KDR IC50 ([1]; pH 7.2, radioactive format): >30 µg/mL
COc1cc2c(Nc3cc(O)c(Cl)cc3F)c(C#N)cnc2cc1OCCN(C)C [Example 86, 4-(4-Chloro-2-fluoro-5-hydroxy-phenylamino)-7-(2-dimethylamino-ethoxy)-6-methoxy-quinoline-3-carbonitrile] | 1.8 µM and 2 µM | 6.96 | –
COc1cc2c(Nc3cc(O)c(Cl)cc3F)c(C#N)cnc2cc1OCCN1CCOCC1 [Example 87, 4-(4-Chloro-2-fluoro-5-hydroxy-phenylamino)-6-methoxy-7-(2-morpholin-4-yl-ethoxy)-quinoline-3-carbonitrile] | – | 6.34 | –
CCOc1cc2c(Nc3ccc(C)c(O)c3)c(C#N)cnc2cc1OC [Example 97, 6-Ethoxy-4-(3-hydroxy-4-methylphenylamino)-7-methoxyquinoline-3-carbonitrile] | – | 0.286 | –
COc1cc2ncc(C#N)c(Nc3ccc(Cl)cc3F)c2cc1OCCCN1CCOCC1 [Example 127] | 6 µM | – | IC50 [1]: 21.2 µM
COc1cc2ncc(C#N)c(Nc3ccc(C)c(O)c3)c2cc1OCCCN1CCOCC1 [Example 128] | – | – | IC50 [1]: 17.8 µM
CCOc1cc2ncc(C#N)c(Nc3cccc(Br)c3)c2cc1NC(=O)C=CCN1CCOCC1 [Example 218, 4-Morpholin-4-yl-but-2-enoic acid [4-(3-bromo-phenylamino)-3-cyano-7-ethoxy-quinolin-6-yl]-amide] | – | > 55.9 | IC50 (SW620; read-out: IC50 SW620, cell number, Sulforhodamine B, 48 hours exposure): 1.85 µg/mL (≈ 3.46 µM); IC50 SW620 (SW620; [5]): 1.235 µg/mL (≈ 2.3 µM); IC50 (SKBR3; SK-BR-3, 48 h, read-out: IC50 SKBR3, cell number, Sulforhodamine B, 48 hours exposure): 0.029 µg/mL (≈ 0.0541 µM); IC50 SKBR3 (SKBR3; [5]): 0.047 µg/mL (≈ 0.0876 µM)
COc1cc2ncc(C#N)c(Nc3ccc(C)c(O)c3)c2cc1OC [Example 229, 4-(3-Hydroxy-4-methyl-phenylamino)-6,7-dimethoxy-quinoline-3-carbonitrile] | < 1 µM | 0.596 | IC50 (A431): 0.469 µg/mL (≈ 1.4 µM); IC50 (SW620; [6]): > 5 µg/mL; IC50 (SKBR3; [7]): > 5 µg/mL
COc1cc2c(Nc3cccc(N(C)C)c3)c(C#N)cnc2c(OC)c1OC [Example 232, 4-(3-Dimethylamino-phenylamino)-6.7.8-trimethoxy-quinoline-3-carbonitrile] | – | > 79.3 | –
COc1cc2c(Nc3ccc(C)c(O)c3)c(C#N)cnc2c(OC)c1OC [Example 233, 4-(3-Hydroxy-4-methyl-phenylamino)-6,7,8-trimethoxy-quinoline-3-carbonitrile] | 80 µM | > 82.1 | –
COc1cc2c(Nc3ccc(Cl)cc3F)c(C#N)cnc2c(OC)c1OC [Example 234, 4-(4-Chloro-2-fluoro-phenylamino)-6,7,8-trimethoxy-quinoline-3-carbonitrile] | > 100 µM | > 77.4 | –
COc1ccc(OC)c2c(Nc3ccc(C)c(O)c3)c(C#N)cnc12 [Example 239, 4-(3-Hydroxy-4-methyl-phenylamino)-5,8-dimethoxy-quinoline-3-carbonitrile] | > 100 µM | > 89.5 | –
COc1ccc(OC)c2c(Nc3cccc(Br)c3)c(C#N)cnc12 [Example 240, 4-(3-Bromo-phenylamino)-5.8-dimethoxy-quinoline-3-carbonitrile] | 10 µM | > 78.1 | –
COc1ccc(OC)c2c(Nc3cccc(N(C)C)c3)c(C#N)cnc12 [Example 242, 4-(3-Dimethylamino-phenylamino)-5,8-dimethoxy-quinoline-3-carbonitrile] | 10 µM | > 86.1 | –
COc1ccc(OC)c2c(Nc3cc(O)c(Cl)cc3F)c(C#N)cnc12 [Example 243, 4-(4-Chloro-2-fluoro-5-hydroxy-phenylamino)-5,8-dimethoxy-quinoline-3-carbonitrile] | > 100 µM | > 80.3 | –
COc1cc2ncc(C#N)c(Nc3ccc(O)c(Cl)c3)c2cc1OC [Example 249, 4-(3-Chloro-4-hydroxy-phenylamino)-6,7-dimethoxy-quinoline-3-carbonitrile] | 15 µM | > 28.1 | –

Molecule | IC50 [2] | IC50 [1, 4] [µM] | also measured
COc1cc2ncc(C#N)c(Nc3ccccc3SC)c2cc1OC [Example 250, 6,7-Dimethoxy-4-(2-methylsulfanyl-phenylamino)-quinoline-3-carbonitrile] | 10 µM | > 28.5 | –
COc1cccc2c(Nc3ccc(Cl)cc3F)c(C#N)cnc12 [Example 275, 4-(4-Chloro-2-fluoro-phenylamino)-8-methoxy-quinoline-3-carbonitrile] | > 100 µM | > 91.5 | –
COc1cccc2c(Nc3cccc(N(C)C)c3)c(C#N)cnc12 [Example 277, 4-(3-Dimethylamino-phenylamino)-8-methoxy-quinoline-3-carbonitrile] | > 100 µM | > 94.2 | –
COc1cccc2c(Nc3ccc(Br)c(O)c3)c(C#N)cnc12 [Example 278, 4-(4-Bromo-3-hydroxy-phenylamino)-8-methoxy-quinoline-3-carbonitrile] | > 100 µM | > 81 | –
COc1ccc(Nc2c(C#N)cnc3c(OC)cccc23)cc1O [Example 279, 4-(3-Hydroxy-4-methoxy-phenylamino)-8-methoxy-quinoline-3-carbonitrile] | > 100 µM | > 93.4 | –
COc1cccc2c(Nc3c(F)cc(F)cc3F)c(C#N)cnc12 [Example 280, 8-Methoxy-4-(2,4,6-trifluoro-phenylamino)-quinoline-3-carbonitrile] | > 100 µM | > 91.1 | –
COc1cc2ncc(C#N)c(Nc3cc(Cl)ccc3O)c2cc1OC [Example 290, 4-(5-Chloro-2-hydroxy-phenylamino)-6,7-dimethoxy-quinoline-3-carbonitrile] | 3 µM | 28.1 | –
COc1cc2ncc(C#N)c(Nc3cc(Br)c(O)c(Br)c3)c2cc1OC [Example 291, 4-(3,5-Dibromo-4-hydroxy-phenylamino)-6,7-dimethoxy-quinoline-3-carbonitrile] | > 100 µM | 20.9 | –
COc1cc2ncc(C#N)c(Nc3cc(C)ccc3O)c2cc1OC [Example 295, 4-(2-Hydroxy-5-methyl-phenylamino)-6,7-dimethoxy-quinoline-3-carbonitrile] | 50 µM | 29.8 | –
N#Cc1cnc2ccc(NC(=O)C#CCN3CCOCC3)cc2c1Nc1cccc(Br)c1 [Example 328, N-[4-[(3-Bromophenyl)amino]-3-cyano-6-quinolinyl]-4-morpholino-2-butynamide] | > 100 µM | – | IC50 (A431): 0.19 µg/mL (≈ 0.387 µM); IC50 (MCF7): 0.78 µg/mL (≈ 1.59 µM); IC50 (SW620; [6]): 0.15 µg/mL (≈ 0.306 µM); IC50 (SKBR3; [7]): 0.02 µg/mL (≈ 0.0408 µM); IC50 (LOX): 0.33 µg/mL (≈ 0.673 µM); IC50 [3]: 0.0045 µM
CN(C)CC#CC(=O)Nc1ccc2ncc(C#N)c(Nc3cccc(Br)c3)c2c1 [Example 329, N-[4-[(3-Bromophenyl)amino]-3-cyano-6-quinolinyl]-4-dimethylamino-2-butynamide] | > 100 µM | – | IC50 (A431): 0.22 µg/mL (≈ 0.491 µM); IC50 (MCF7): 0.75 µg/mL (≈ 1.67 µM); IC50 (SW620; [6]): 0.03 µg/mL (≈ 0.0669 µM); IC50 (SKBR3; [7]): 0.21 µg/mL (≈ 0.468 µM); IC50 (LOX): 0.58 µg/mL (≈ 1.29 µM); IC50 [3]: 0.00045 µM
COCC#CC(=O)Nc1ccc2ncc(C#N)c(Nc3cccc(Br)c3)c2c1 [Example 330, N-[4-[(3-Bromophenyl)amino]-3-cyano-6-quinoliny]-4-methoxy-2-butynamide] | > 100 µM | – | IC50 (A431): 0.05 µg/mL (≈ 0.115 µM); IC50 (MCF7): 0.36 µg/mL (≈ 0.827 µM); IC50 (SW620; [6]): 0.02 µg/mL (≈ 0.0459 µM); IC50 (SKBR3; [7]): 0.23 µg/mL (≈ 0.528 µM); IC50 (LOX): 0.02 µg/mL (≈ 0.0459 µM); IC50 [3]: 0.00028 µM
N#Cc1cnc2ccc(NC(=O)C#CCO)cc2c1Nc1cccc(Br)c1 [Example 332] | 25 µM and < 50 µM | – | IC50 (A431): 0.6 µg/mL (≈ 1.42 µM); IC50 (MCF7): 54.9 µg/mL (≈ 130 µM); IC50 (SW620; [6]): 0.44 µg/mL (≈ 1.04 µM); IC50 (SKBR3; [7]): 0.08 µg/mL (≈ 0.19 µM); IC50 (LOX): 0.51 µg/mL (≈ 1.21 µM); IC50 [3]: 0.0009 µM
N#Cc1cnc2ccc(NCCCN3CCCC3)cc2c1Nc1cccc(Br)c1 [Example 358, 4-(3-Bromo-phenylamino)-6-(3-pyrrolidin-1-yl-propylamino)-quinoline-3-carbonitrile] | 18 µM | – | IC50 (A431): 0.5 µg/mL (≈ 1.11 µM); IC50 (MCF7): 7.8 µg/mL (≈ 17.3 µM); IC50 (SW620; [6]): 4.1 µg/mL (≈ 9.1 µM); IC50 (SKBR3; [7]): 0.7 µg/mL (≈ 1.55 µM); IC50 (LOX): 2.5 µg/mL (≈ 5.55 µM); IC50 [3]: 0.1 µM
CSc1cccc(Nc2c(C#N)cnc3ccc(N)cc23)c1 [Example 363, 6-Amino-4-[(3-methylsulfanylphenyl)amino]-3-quinolinecarbonitrile] | 25 µM | – | IC50 (A431): 0.07 µg/mL (≈ 0.228 µM); IC50 (MCF7): 0.8 µg/mL (≈ 2.61 µM); IC50 (SW620; [6]): 0.08 µg/mL (≈ 0.261 µM); IC50 (SKBR3; [7]): 0.06 µg/mL (≈ 0.196 µM); IC50 (LOX): 0.08 µg/mL (≈ 0.261 µM); IC50 [3]: 0.1 µM
